Laboratory results from US20110319611A1, “BENZOXAZINONE COMPOUND, METHOD FOR PRODUCING THE SAME, AND PHARMACEUTICAL COMPOSITION CONTAINING THE SAME” (Chang Gung University, priority 2010, published 2011).

Assays:
Human neutrophils [1] = assay: O2•− generation assay (SOD-inhibitable reduction of ferricytochrome c) in FMLP/CB-activated neutrophils; type: cell-based; settings: Neutrophil, absorbance 550 nm, mean ± S.E.M. (n = 3)
Description: (§1) Human neutrophils were prepared by the following procedure. […] The precipitate thus obtained was treated with a hypotonic solution, i.e., 0.2% NaCl, to lyse erythrocytes, followed by removal of the lysed erythrocytes using centrifugation at 200 g and 4° C. for 8 minutes so as to obtain the neutrophils. […] The neutrophil suspension was stored at 4° C. before use.
The O2^•− generation assay was based on the superoxide dismutase (SCD)-inhinitable reduction of ferricytochrome c. […] The neutrophils obtained in the section of “3. […] In a control group, 100% DMSO was used to substitute the compound solution. Moreover, in the positive control group, diphenyleneiodonium (DPI) was used to substitute the compound solution. The reacted mixture was added with 1.5 μl of cytochalasin B (CB, […]) and was incubated for […], followed by addition with 1.5 μl of formyl-L-methionyl-L-leucyl-L-phenylalanine (FMLP, 100 μM) and reaction for 10 minutes to activate neutrophils.

Human neutrophils [2] = assay: Release of human neutrophil elastase (NE) from FMLP/CB-activated neutrophils; type: cell-based; settings: substrate MeO-Suc-Ala-Ala-Pro-Val-p-nitroanilide, 405 nm, mean ± S.E.M. (n = 3)
Description: as §1
The neutrophils obtained in the section of “3. […] In a control group, 100% DMSO was used to substitute the compound solution. […] The reacted mixture was added with 1.5 μl of cytochalasin B (CB, 0.5 mg/ml) and was incubated for 3 minutes, followed by addition with 1.5 μl of formyl-L-methionyl-L-leucyl-L-phenylalanine (FMLP, 100 μM) and reaction for 10 minutes to activate neutrophils.

[3] = biological target: T1, human neutrophil elastase (Homo sapiens, UniProt P08246); assay: Inhibition of NE activity in supernatant of activated neutrophils; type: biochemical; settings: supernatant of FMLP/CB-activated human neutrophils containing NE; mean ± S.E.M. (n = 3)
T1 construct: endogenous in cells; cell-free supernatant used
T1 sequence (P08246 30-267): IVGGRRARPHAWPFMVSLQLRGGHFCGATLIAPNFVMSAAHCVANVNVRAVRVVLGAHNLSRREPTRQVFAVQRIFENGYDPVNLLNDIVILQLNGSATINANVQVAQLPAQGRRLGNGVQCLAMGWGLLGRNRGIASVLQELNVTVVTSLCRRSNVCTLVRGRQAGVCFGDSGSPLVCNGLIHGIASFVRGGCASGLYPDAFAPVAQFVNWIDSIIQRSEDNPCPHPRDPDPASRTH
From the text: The neutrophils obtained in the section of “3. […] In a control group, 100% DMSO was used to substitute the compound solution. Moreover, in the positive control group, PMSF was used to substitute the compound solution.

human NE = biological target: T2, human NE (Homo sapiens, UniProt P08246); assay: Inhibition of commercially available pure neutrophil elastase; type: biochemical; settings: 0.0075 U/ml human NE (Sigma), 96-well plate, 30 minutes, 405 nm
T2 construct: purchased Sigma, St. Louis, Mo; USA
T2 sequence (P08246 30-267): T1 sequence (P08246 30-267)
From the text: In a control group, 0.1% DMSO was used to substitute the compound solution. Moreover, in the positive control group, PMSF was used to substitute the compound solution.

[4] = tested on: lung injury caused by trauma-hemorrhagic shock; assay: Water content assay of lung tissue after trauma-hemorrhagic shock; type: in vivo, rat
Description: (§2) Specifically, the effects of compound E7 on water content in lung tissues and myeloperoxidase (MPO) activity were measured.
(§3) In brief, male Sprague-Dawley (S.D.) rats having a body weight ranging from 275 to 325 g were obtained from National Laboratory Animal Center. The rats were randomly divided into four groups including experimental groups 1 and 2 and sham-operated groups 1 and 2. Each group included 8 rats. All rats were raised in an air-conditioned room with the following conditions: a light-dark cycle of 12-14 hours of illumination and 10-12 hours of darkness, 20-26° C., and relative humidity of 40-60%. The rats were free to have sufficient drinking water and feed and lived in the aforesaid room for one week to adapt to the environment. Before beginning the experiments, the rats were starved overnight while allowed to have sufficient drinking water ad libitum. The rats were anesthetized by isoflurane (Attane, Minrad, Bethlehem, Pa.) inhalation and were subjected to 5-cm midline laparotomy in the abdomen. […] The total amount of the blood volume of maximum bleed-out was recorded. […]
The left upper lobe was weighted and the weight was referred to as “wet weight”. The left upper lobe was then dried at 80° C. for 24 hours, and the weight, referred to as dry weight, thereof was measured. […]
The data were analyzed using the GraphPad Prism software (GraphPad Software, San Diego, Calif.). […]

[5] = tested on: lung injury caused by trauma-hemorrhagic shock; assay: Myeloperoxidase (MPO) activity in lung tissue after trauma-hemorrhagic shock; type: in vivo, rat
Description: as §2, §3
Activity of MPO was determined based on a method disclosed in H. P. Yu et al., Biochem. Pharmacol., 78: 983-992, 2009. […]

[6] = sham-operated rats, E7 (group 2) vs vehicle (group 1)

Row | Compound | IC50 (Human neutrophils [1]) [µM] | IC50 (Human neutrophils [2]; Neutrophil) [µM] | further results
1 | O=S(=O)(F)Cc1ccccc1 [PMSF, phenylmethylsulfonyl fluoride] |  |  | IC50 (Human neutrophils [2]): 110 ± 25 µM; IC50 [3]: 95.2 ± 19.2 µM; IC50 (human NE): 52.2 ± 1.07 µM
2 | c1ccc2c(c1)[I+]c1ccccc1-2 [DPI, diphenyleneiodonium] | 0.97 ± 0.395 |  | 
3 | O=c1oc(-c2ccccc2Br)nc2cccc(Cl)c12 [Compound E7, 5-chloro-2-(2′-bromophenyl)-4H-benzo[d][1,3]oxazin-4-one] |  |  | water content in lung tissue (wet weight/dry weight) [4, 6]: no significant difference; water content in lung tissue (wet weight/dry weight) ([4]; trauma-hemorrhage rats, E7 (experimental group 2) vs vehicle (experimental group 1), 24 hours after resuscitation, p<0.001): significantly reduced; MPO activity in lung tissue [5, 6]: no significant difference; MPO activity in lung tissue ([5]; trauma-hemorrhage rats, E7 (experimental group 2) vs vehicle (experimental group 1), 24 hours after resuscitation, p<0.01): significantly reduced
4 | CC(C)C[C@H](NC(=O)N[C@H](C(=O)N[C@@H](CCC(N)=O)C(=O)N[C@@H](C)C=O)[C@@H]1CCNC(=N)N1)C(=O)O [Elastatinal, elastatinal] |  | 56.5 ± 9.13 | 

Continued, in another order:

Row | IC50 (Human neutrophils [1]) [µM] | IC50 (Human neutrophils [2]; Neutrophil) [µM] | Compound | further results
5 | > 25 | 6.03 ± 0.65 | O=c1oc(-c2ccccc2F)nc2c(Cl)cccc12 [CE1, 8-chloro-2-(2′-fluorophenyl)-4H-benzo[d][1,3]oxazin-4-one] | 
6 | 6.56 ± 3.09 | 1.69 ± 0.3 | O=c1oc(-c2ccccc2Br)nc2c(Cl)cccc12 [CE3, 8-chloro-2-(2′-bromophenyl)-4H-benzo[d][1,3]oxazin-4-one] | 
7 | 8.66 ± 1.44 | 1.89 ± 1.1 | O=c1oc(-c2ccccc2Cl)nc2c(Cl)cccc12 [CE2, 8-chloro-2-(2′-chlorophenyl)-4H-benzo[d][1,3]oxazin-4-one] | 
8 | 17.5 ± 2.69 | > 25 | Cc1ccccc1-c1nc2c(Cl)cccc2c(=O)o1 [CE4, 8-chloro-2-(2′-methylphenyl)-4H-benzo[d][1,3]oxazin-4-one] | 
9 | 10 ± 0.59 | 1.91 ± 0.14 | COc1ccccc1-c1nc2c(Cl)cccc2c(=O)o1 [CE5, 8-chloro-2-(2′-methoxylphenyl)-4H-benzo[d][1,3]oxazin-4-one] | 
